Entries after “also recorded” stand apart in the source; their conditions may differ. Blank lines part the entries; values can stand above or below the substance they belong to. Where no end group is shown, it is not given here.
Tests used:
[1] = Longer-term obesity model in HFD-fed mice
Description: Mice (Male C57BL/6) were of approximately 13 weeks of age were housed 4 mice per cage. Following 2 weeks of acclimatation, mice were introduced to 60% kcal HFD (Research Diets D12492). Cages were changed once, then changed once a week. Weekly body weights and non-fasted blood glucose were collected.
Mice were injected by tail vein with vehicle or the drugs on Day 0, Day 4, Day 7, Day 10, Day 14, and Day 18. Body weights were measured every 2 days. Change in body weight was calculated and plotted.
Cumulative food intake was measured between day 0 and 3, between day 4 and 7, between day 7 and day 11, and between day 11 and day 14, and represented as average daily food intake. For food consumption, remaining food was weighed on days 3, 8, and 15, and subtracted from the starting weight. This value was then normalized to the number of mice in the cage, and the number of days the mice had access to the food prior to weighing.
Blood glucose levels were measured on Days 0, 1, 10 and 15 and plotted.
On day 19 during terminal necropsy, liver and subcutaneous white adipose tissue were recovered weighed from treated animals.
To further analyze the changes in liver, histopathological analysis was conducted. Briefly, the liver tissue was stained with hematoxylin and eosin (H&E) and evaluated using standard techniques.

GlPR = target: T1, GlPR (Rattus norvegicus, UniProt P43219); experiment: pGloSensor-22F cAMP biosensor assay in rat INS-1 cells (GlPR agonism and antagonism); format: cell-based; set-up: dose or concentration left out as unconfirmed; conditions: increasing doses mixed with GlP(Ag)
T1 construct: endogenous in cells; host or cells: rat INS-1 insulinoma cells carrying a cAMP reporter (a cAMP-luciferase reporter in A2, the pGloSensor-22F biosensor in A4)
T1 sequence (P43219 19-455): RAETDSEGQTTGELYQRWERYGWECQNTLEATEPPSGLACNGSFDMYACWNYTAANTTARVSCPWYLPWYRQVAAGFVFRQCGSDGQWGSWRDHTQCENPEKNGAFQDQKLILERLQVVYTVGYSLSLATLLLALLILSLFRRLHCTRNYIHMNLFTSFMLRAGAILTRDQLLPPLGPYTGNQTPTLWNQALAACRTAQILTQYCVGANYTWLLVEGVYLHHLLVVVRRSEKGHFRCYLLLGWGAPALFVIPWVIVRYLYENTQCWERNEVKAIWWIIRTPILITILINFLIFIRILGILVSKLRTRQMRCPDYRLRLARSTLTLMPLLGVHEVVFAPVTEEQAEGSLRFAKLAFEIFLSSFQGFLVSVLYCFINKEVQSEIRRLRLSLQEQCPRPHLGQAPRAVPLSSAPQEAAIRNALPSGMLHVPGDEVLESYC
Description: Briefly, rat INS-1 cells having pGloSensor-22F (Promega) were constructed and used to evaluate GlPR agonism and antagonism. […] The conformational change leads to the activation of the luciferase enzyme, thereby allowing detection of activation of GlPR, which produces cAMP upon activation.
Immediately after the addition, the luminescence of the cells was measured, normalized using the basal luminescence and plotted.

[2] = target: GlP receptor (GlPR) of rat INS-1 insulinoma cells (UniProt P43219)
[3] = day 19 terminal necropsy, vs PBS control

Substance: dulaglutide [reference compound]
blood glucose levels ([1]; Days 0, 1, 10 and 15, compared to the untreated mice): decrease in blood glucose | plasma insulin levels on Day 15 ([1]; FIG. 8C right panel): significant decrease in the levels of insulin | plasma insulin levels on Day 1 ([1]; between 15 and 120 minutes after treatment): rapid decrease in insulin levels | average daily food intake ([1]; compared to the untreated mice): decrease in food intake | liver weight [1, 3]: livers of control mice that received only PBS were much heavier | subcutaneous white adipose tissue (sWAT) weight [1, 3]: decreased | change in body weight ([1]; tail vein dosing Day 0, 4, 7, 10, 14, 18, weighed every 2 days): progressive weight loss | tolerability, clinical observations ([1]; tail vein dosing Day 0 to Day 18): well tolerated and no overt toxicities were noted | collagen staining (fibrosis), picrosirius red liver sections ([1]; vs vehicle-treated mice): decrease in collagen staining | hepatocellular ballooning and steatosis, H&E liver histology ([1]; vs vehicle-treated mice): decrease in hepatocellular ballooning and steatosis

Substance: GlP(AntPro3NH2): GlP antagonist peptide derivative of GlP(AntPro3), NH2 form (YAPGTFISDYSIAMDKIHQQDFVNWLLAQKGKKNDWKHNITQ-NH2)
inhibition of GlP(Ag)-induced activation of the cAMP-luciferase reporter gene (GlPR antagonism) (GlPR): more potent inhibition of GlP agonist signaling than the others tested; also recorded: maximal level of a dose-dependent inhibition of GlP(Ag)-induced activation

Substance: GlP(AntPro3): GlP Antagonist (amino acids 1-42, having a E3P substitution); SEQ ID NO: 97 (YAPGTFISDYSIAMDKIHQQDFVNWLLAQKGKKNDWKHNITQ)
inhibition of GlP(Ag)-induced activation of the cAMP-luciferase reporter gene (GlPR antagonism) (GlPR): more potent inhibition of GlP agonist signaling than the others tested; also recorded: maximal level of a dose-dependent inhibition of GlP(Ag)-induced activation

EC50 (read off the curve): fall of cAMP-Glo luminescence, rat INS-1 cells [2]: 0.003 pM
Substance: tirzepatide (peptide)

— patent US20250066446A1, “FUSION PROTEINS FOR THE TREATMENT OF CARDIOMETABOLIC DISEASES” (Shattuck Labs, Inc., priority 2022, published 2025)
